In patent US20230322761A1, “DEGRADATION OF BRUTON'S TYROSINE KINASE (BTK) BY CONJUGATION OF BTK INHIBITORS WITH E3 LIGASE LIGAND AND METHODS OF USE” (BEIGENE, LTD., priority 2020, published 2023):

Molecular target: T1, BTK (Homo sapiens, UniProt Q06187)
T1 construct: endogenous in cells; host or cells: TMD-8 cells
Assay: BTK degradation in TMD-8 cells, HTRF assay after 6 h treatment
Assay type: cell-based
Conditions: IC50 (DC50) of BTK degradation
Outline: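 Remaining BTK was quantified by HTRF in lysates of TMD-8 cells after 6 h exposure to an 8-point, 6-fold compound series (500× stocks in DMSO starting at 1 mM; 0.2% DMSO). Lysis 30 min, antibodies overnight at room temperature, ratio read at 665/620 nm; DC50 fitted with a four-parameter logistic equation.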

T1 sequence (Q06187 whole entry): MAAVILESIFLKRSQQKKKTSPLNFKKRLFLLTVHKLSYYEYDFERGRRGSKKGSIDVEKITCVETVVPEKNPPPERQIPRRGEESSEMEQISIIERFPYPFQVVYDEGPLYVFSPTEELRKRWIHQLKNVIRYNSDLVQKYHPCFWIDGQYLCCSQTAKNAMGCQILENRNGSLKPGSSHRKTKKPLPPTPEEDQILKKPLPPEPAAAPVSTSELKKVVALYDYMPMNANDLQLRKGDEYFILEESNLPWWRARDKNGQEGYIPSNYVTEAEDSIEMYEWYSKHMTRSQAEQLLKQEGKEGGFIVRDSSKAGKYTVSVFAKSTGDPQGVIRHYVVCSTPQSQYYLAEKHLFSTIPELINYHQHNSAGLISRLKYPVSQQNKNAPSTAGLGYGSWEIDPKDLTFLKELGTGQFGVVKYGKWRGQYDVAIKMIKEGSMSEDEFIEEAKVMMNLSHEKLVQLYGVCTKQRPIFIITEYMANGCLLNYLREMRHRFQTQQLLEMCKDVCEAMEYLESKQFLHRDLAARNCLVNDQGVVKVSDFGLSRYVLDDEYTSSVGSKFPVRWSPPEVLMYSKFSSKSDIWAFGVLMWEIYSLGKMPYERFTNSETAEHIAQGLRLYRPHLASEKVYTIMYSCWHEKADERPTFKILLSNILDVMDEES

SMILES	DC50 [nM]
Cc1cc(CCN2CCN(c3ccc(-c4cnc5[nH]nc(-c6ccc([C@@H](C)NC(=O)c7noc(C(C)(C)C)n7)c(CO)c6)c5c4)cc3)CC2)ncc1C1CCC(=O)NC1=O (stereo partly drawn) [Example 149, 5-(tert-butyl)-N-((1R)-1-(4-(5-(4-(4-(2-(5-(2,6-dioxopiperidin-3-yl)-4-methylpyridin-2-yl)ethyl)piperazin-1-yl)phenyl)-1H-pyrazolo[3,4-b]pyridin-3-yl)-2-(hydroxymethyl)phenyl)ethyl)-1,2,4-oxadiazole-3-carboxamide]	1.6
Cc1cc(-c2n[nH]c3ncc(-c4ccc(N5CCN(CCc6ccc([C@H]7CCC(=O)NC7=O)cc6)CC5)cc4)cc23)ccc1CNC(=O)c1cn(C(C)(C)C)nn1 [Example 150, (R)-1-(tert-butyl)-N-(4-(5-(4-(4-(4-(2,6-dioxopiperidin-3-yl)phenethyl)piperazin-1-yl)phenyl)-1H-pyrazolo[3,4-b]pyridin-3-yl)-2-methylbenzyl)-1H-1,2,3-triazole-4-carboxamide]	8.88
Cc1cc(-c2n[nH]c3ncc(-c4ccc(N5CCN(CCc6ccc([C@@H]7CCC(=O)NC7=O)cc6)CC5)cc4)cc23)ccc1CNC(=O)c1cn(C(C)(C)C)nn1 [Example 151, (S)-1-(tert-butyl)-N-(4-(5-(4-(4-(4-(2,6-dioxopiperidin-3-yl)phenethyl)piperazin-1-yl)phenyl)-1H-pyrazolo[3,4-b]pyridin-3-yl)-2-methylbenzyl)-1H-1,2,3-triazole-4-carboxamide]	17.8
Cc1cc(-c2n[nH]c3ncc(-c4ccc(C5CCN(CCc6ccc([C@H]7CCC(=O)NC7=O)cc6)CC5)nc4)cc23)ccc1[C@@H](C)NC(=O)c1noc(C(C)(C)C)n1 [Example 152, 5-(tert-butyl)-N—((R)-1-(4-(5-(6-(1-(4-((R)-2,6-dioxopiperidin-3-yl)phenethyl)piperidin-4-yl)pyridin-3-yl)-1H-pyrazolo[3,4-b]pyridin-3-yl)-2-methylphenyl)ethyl)-1,2,4-oxadiazole-3-carboxamide]	1.03
Cc1cc(-c2n[nH]c3ncc(-c4ccc(C5CCN(CCc6ccc([C@@H]7CCC(=O)NC7=O)cc6)CC5)nc4)cc23)ccc1[C@@H](C)NC(=O)c1noc(C(C)(C)C)n1 [Example 153, 5-(tert-butyl)-N—((R)-1-(4-(5-(6-(1-(4-((S)-2,6-dioxopiperidin-3-yl)phenethyl)piperidin-4-yl)pyridin-3-yl)-1H-pyrazolo[3,4-b]pyridin-3-yl)-2-methylphenyl)ethyl)-1,2,4-oxadiazole-3-carboxamide]	11.8
Cc1cc(CCN2CCN(c3ccc(-c4cnc5[nH]nc(-c6ccc([C@@H](C)NC(=O)c7nc(C(C)(C)C)no7)c(C)c6)c5c4)cc3)CC2)ncc1C1CCC(=O)NC1=O (stereo partly drawn) [Example 154, 3-(tert-butyl)-N-((1R)-1-(4-(5-(4-(4-(2-(5-(2,6-dioxopiperidin-3-yl)-4-methylpyridin-2-yl)ethyl)piperazin-1-yl)phenyl)-1H-pyrazolo[3,4-b]pyridin-3-yl)-2-methylphenyl)ethyl)-1,2,4-oxadiazole-5-carboxamide]	3.27
Cc1cc(-c2n[nH]c3ncc(-c4ccc(N5CCN(CCc6ccc(C7CCC(=O)NC7=O)c(C)n6)CC5)cc4)cc23)ccc1[C@@H](C)NC(=O)c1noc(C(C)(C)C)n1 (stereo partly drawn) [Example 155, 5-(tert-butyl)-N-((1R)-1-(4-(5-(4-(4-(2-(5-(2,6-dioxopiperidin-3-yl)-6-methylpyridin-2-yl)ethyl)piperazin-1-yl)phenyl)-1H-pyrazolo[3,4-b]pyridin-3-yl)-2-methylphenyl)ethyl)-1,2,4-oxadiazole-3-carboxamide]	2.92
Cc1cc(-c2n[nH]c3ncc(-c4ccc(N5CCN(CCc6ccc(C7CCC(=O)NC7=O)c(C)n6)CC5)cc4)cc23)ccc1[C@@H](C)NC(=O)c1nc(C(C)(C)C)no1 (stereo partly drawn) [Example 156, 3-(tert-butyl)-N-((1R)-1-(4-(5-(4-(4-(2-(5-(2,6-dioxopiperidin-3-yl)-6-methylpyridin-2-yl)ethyl)piperazin-1-yl)phenyl)-1H-pyrazolo[3,4-b]pyridin-3-yl)-2-methylphenyl)ethyl)-1,2,4-oxadiazole-5-carboxamide]	2.14
Cc1cc(-c2n[nH]c3nc(-c4ccc(N5CCN(CC6CCN(c7ccc(N8CCC(=O)NC8=O)cc7)CC6)CC5)cc4)ccc23)ccc1[C@@H](C)NC(=O)c1noc(C(C)(C)C)n1 [Example 157, (R)-5-(tert-butyl)-N-(1-(4-(6-(4-(4-((1-(4-(2,4-dioxotetrahydropyrimidin-1(2H)-yl)phenyl)piperidin-4-yl)methyl)piperazin-1-yl)phenyl)-1H-pyrazolo[3,4-b]pyridin-3-yl)-2-methylphenyl)ethyl)-1,2,4-oxadiazole-3-carboxamide]	62.1
Cc1cc(-c2n[nH]c3ncc(-c4ccc(N5CCN(CCc6ccc(N7CCC(=O)NC7=O)nc6)CC5)cc4)cc23)ccc1[C@@H](C)NC(=O)c1noc(C(C)(C)C)n1 [Example 159, (R)-5-(tert-butyl)-N-(1-(4-(5-(4-(4-(2-(6-(2,4-dioxotetrahydropyrimidin-1(2H)-yl)pyridin-3-yl)ethyl)piperazin-1-yl)phenyl)-1H-pyrazolo[3,4-b]pyridin-3-yl)-2-methylphenyl)ethyl)-1,2,4-oxadiazole-3-carboxamide]	56.3
Cc1cc(-c2n[nH]c3ncc(-c4ccc(N5CCN(CC(C)c6ccc(N7CCC(=O)NC7=O)cc6)CC5)cc4)cc23)ccc1[C@@H](C)NC(=O)c1noc(C(C)(C)C)n1 (stereo partly drawn) [Example 160, 5-(tert-butyl)-N-((1R)-1-(4-(5-(4-(4-(2-(4-(2,4-dioxotetrahydropyrimidin-1(2H)-yl)phenyl)propyl)piperazin-1-yl)phenyl)-1H-pyrazolo[3,4-b]pyridin-3-yl)-2-methylphenyl)ethyl)-1,2,4-oxadiazole-3-carboxamide]	10.6
Cc1cc(-c2n[nH]c3ncc(-c4ccc(N5CCN(CCc6ccc([C@@H]7CCC(=O)NC7=O)cc6)CC5)cn4)cc23)ccc1[C@@H](C)NC(=O)c1noc(C(C)(C)C)n1 [Example 161, 5-(tert-butyl)-N—((R)-1-(4-(5-(5-(4-(4-((S)-2,6-dioxopiperidin-3-yl)phenethyl)piperazin-1-yl)pyridin-2-yl)-1H-pyrazolo[3,4-b]pyridin-3-yl)-2-methylphenyl)ethyl)-1,2,4-oxadiazole-3-carboxamide]	5.27
Cc1cc(-c2n[nH]c3ncc(-c4ccc(N5CCN(CCc6ccc([C@H]7CCC(=O)NC7=O)cc6)CC5)cn4)cc23)ccc1[C@@H](C)NC(=O)c1noc(C(C)(C)C)n1 [Example 162, 5-(tert-butyl)-N—((R)-1-(4-(5-(5-(4-(4-((R)-2,6-dioxopiperidin-3-yl)phenethyl)piperazin-1-yl)pyridin-2-yl)-1H-pyrazolo[3,4-b]pyridin-3-yl)-2-methylphenyl)ethyl)-1,2,4-oxadiazole-3-carboxamide]	1.01
Cc1cc(-c2n[nH]c3ncc(-c4ccc(N5CCN(CCc6ccc(C7CCC(=O)NC7=O)c(C)n6)CC5)cn4)cc23)ccc1[C@@H](C)NC(=O)c1noc(C(C)(C)C)n1 (stereo partly drawn) [Example 163, 5-(tert-butyl)-N-((1R)-1-(4-(5-(5-(4-(2-(5-(2,6-dioxopiperidin-3-yl)-6-methylpyridin-2-yl)ethyl)piperazin-1-yl)pyridin-2-yl)-1H-pyrazolo[3,4-b]pyridin-3-yl)-2-methylphenyl)ethyl)-1,2,4-oxadiazole-3-carboxamide]	2.13
Cc1cc(-c2n[nH]c3ncc(-c4ccc(N5CCN(CCn6nc(C)c(N7CCC(=O)NC7=O)c6C)CC5)cc4)cc23)ccc1[C@@H](C)NC(=O)c1noc(C(C)(C)C)n1 [Example 164, (R)-5-(tert-butyl)-N-(1-(4-(5-(4-(4-(2-(4-(2,4-dioxotetrahydropyrimidin-1(2H)-yl)-3,5-dimethyl-1H-pyrazol-1-yl)ethyl)piperazin-1-yl)phenyl)-1H-pyrazolo[3,4-b]pyridin-3-yl)-2-methylphenyl)ethyl)-1,2,4-oxadiazole-3-carboxamide]	2.05
Cc1cc(-c2n[nH]c3ncc(-c4ccc(N5CCC(CN6CCN(c7ccc(N8CCC(=O)NC8=O)cn7)CC6)CC5)cc4)cc23)ccc1[C@@H](C)NC(=O)c1noc(C(C)(C)C)n1 [Example 165, (R)-5-(tert-butyl)-N-(1-(4-(5-(4-(4-((4-(5-(2,4-dioxotetrahydropyrimidin-1(2H)-yl)pyridin-2-yl)piperazin-1-yl)methyl)piperidin-1-yl)phenyl)-1H-pyrazolo[3,4-b]pyridin-3-yl)-2-methylphenyl)ethyl)-1,2,4-oxadiazole-3-carboxamide]	2.7
Cc1nc(CCN2CCN(c3ccc(-c4cnc5[nH]nc(-c6ccc([C@@H](C)NC(=O)c7noc(C(C)(C)C)n7)c(C)c6F)c5c4)cc3)CC2)ccc1C1CCC(=O)NC1=O (stereo partly drawn) [Example 166, 5-(tert-butyl)-N-((1R)-1-(4-(5-(4-(4-(2-(5-(2,6-dioxopiperidin-3-yl)-6-methylpyridin-2-yl)ethyl)piperazin-1-yl)phenyl)-1H-pyrazolo[3,4-b]pyridin-3-yl)-3-fluoro-2-methylphenyl)ethyl)-1,2,4-oxadiazole-3-carboxamide]	3.07
Cc1nc(CCN2CCN(c3ccc(-c4cnc5[nH]nc(-c6ccc([C@@H](C)NC(=O)c7noc(C(C)(C)C)n7)c(CO)c6)c5c4)cc3)CC2)ccc1C1CCC(=O)NC1=O (stereo partly drawn) [Example 167, 5-(tert-butyl)-N-((1R)-1-(4-(5-(4-(4-(2-(5-(2,6-dioxopiperidin-3-yl)-6-methylpyridin-2-yl)ethyl)piperazin-1-yl)phenyl)-1H-pyrazolo[3,4-b]pyridin-3-yl)-2-(hydroxymethyl)phenyl)ethyl)-1,2,4-oxadiazole-3-carboxamide]	4.13
Cc1cc(N2CCC(CCN3CCN(c4ccc(-c5cnc6[nH]nc(-c7ccc([C@@H](C)NC(=O)c8noc(C(C)(C)C)n8)c(C)c7)c6c5)cc4)CC3)CC2)ccc1C1CCC(=O)NC1=O (stereo partly drawn) [Example 168, 5-(tert-butyl)-N-((1R)-1-(4-(5-(4-(4-(2-(1-(4-(2,6-dioxopiperidin-3-yl)-3-methylphenyl)piperidin-4-yl)ethyl)piperazin-1-yl)phenyl)-1H-pyrazolo[3,4-b]pyridin-3-yl)-2-methylphenyl)ethyl)-1,2,4-oxadiazole-3-carboxamide]	15.6
